Data on twelve compounds can be found in PubChem BioAssay (NCI).

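48-hour exposure; five concentrations; linearly interpolated endpoints. The concentration for 50% growth inhibition is given as GI50. TGI is the concentration that stops growth completely.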

Some test systems named below: U251 CNS; MALME-3M melanoma; SK-OV-3 ovarian; EKVX NSCLC; SF-539 CNS; SK-MEL-28 melanoma; HOP-62 NSCLC; OVCAR-4 ovarian; COLO 205 colon; RXF 393 renal.
Common to all, as to assay: NCI-60 cell line screen, 48 h

Take `CCOC(=O)C(NC(=O)c1nc[nH]c1[N+](=O)[O-])C(C)C` (centres undefined): the TGI with U251 CNS, in the test with MALME-3M melanoma, in the test with SK-OV-3 ovarian, with EKVX NSCLC, in the test with SF-539 CNS and with SK-MEL-28 melanoma was greater than 100 µM each time. Also, the TGI in the test on HOP-62 NSCLC, in the test with OVCAR-4 ovarian and with COLO 205 colon was greater than 100 µM each time.

In the case of `Cn1c2c(c3ccccc31)CCN(CCN1CCN(c3cccc(Cl)c3)CC1)C2=O`, the TGI in the test with U251 CNS, in the test with SK-OV-3 ovarian, with EKVX NSCLC, in the test on SF-539 CNS, in the test on RXF 393 renal and in the test with SK-MEL-28 melanoma was greater than 100 µM each time. Also, the TGI with HOP-62 NSCLC and in the test on COLO 205 colon was greater than 100 µM throughout.

As for `Cc1ccccc1C(=O)N1CCN(C(=O)c2ccccc2C)CC1`, the TGI with U251 CNS, in the test with SK-OV-3 ovarian, with EKVX NSCLC, in the test with SF-539 CNS, with RXF 393 renal and in the test on SK-MEL-28 melanoma was greater than 100 µM each time. Moreover, the TGI in the test on HOP-62 NSCLC and in the test with OVCAR-4 ovarian was greater than 100 µM in each case.

As for `C/C(=N\NC(=O)CC#N)c1c(O)cc(C)oc1=O`, the TGI in the test on U251 CNS, in the test with MALME-3M melanoma, in the test with SK-OV-3 ovarian, in the test on EKVX NSCLC, in the test with SF-539 CNS and with SK-MEL-28 melanoma was greater than 100 µM in each case. For the same compound, the TGI in the test on HOP-62 NSCLC and with OVCAR-4 ovarian was greater than 100 µM each time.

For the compound `O=c1c(F)cn(Cc2ccccc2CCl)c(=O)n1Cc1ccccc1CCl`, the GI50 was 1.55 µM in the test with U251 CNS; 2.2 µM in the test on MALME-3M melanoma; 5.88 µM with SK-OV-3 ovarian; 3.07 µM with EKVX NSCLC; 2.06 µM in the test on SF-539 CNS; 1.4 µM in the test with SK-MEL-28 melanoma. Further, the GI50 in the test with HOP-62 NSCLC is 2.35 µM; with OVCAR-4 ovarian, 3.5 µM; in the test on COLO 205 colon, 1.7 µM. For the same compound, the TGI in the test with U251 CNS is 3.49 µM; in the test with MALME-3M melanoma it was 4.59 µM; in the test on SK-OV-3 ovarian, 15.1 µM; in the test on EKVX NSCLC it was 9.22 µM; with SF-539 CNS it was 4.73 µM; in the test on SK-MEL-28 melanoma, 3.32 µM. In addition, the TGI in the test with HOP-62 NSCLC turned out to be 4.84 µM; in the test with OVCAR-4 ovarian it was 12.8 µM; in the test on COLO 205 colon, 3.52 µM.

Regarding `CSC(=NCCc1c[nH]c2ccccc12)NC#N`, the TGI in the test with U251 CNS, with SK-OV-3 ovarian, with EKVX NSCLC, with SF-539 CNS, with RXF 393 renal and in the test with SK-MEL-28 melanoma was greater than 100 µM in each case. Also, the TGI in the test with HOP-62 NSCLC, with OVCAR-4 ovarian and in the test with COLO 205 colon was greater than 100 µM in each case.

For `O=S(=O)(NCCCNc1nccc(-c2c(-c3ccc(F)cc3)nc3sccn23)n1)c1ccc2ccccc2c1`, the GI50 was 4.87 µM with U251 CNS; greater than 100 µM in the test on SK-OV-3 ovarian; greater than 100 µM in the test on SF-539 CNS; 5.21 µM in the test on RXF 393 renal; greater than 100 µM in the test on SK-MEL-28 melanoma; greater than 100 µM in the test with HOP-62 NSCLC. Besides, the GI50 in the test with OVCAR-4 ovarian is 5.99 µM; with COLO 205 colon, 2.22 µM. The TGI in the test on U251 CNS, in the test with SK-OV-3 ovarian, in the test with SF-539 CNS, in the test with RXF 393 renal, in the test with SK-MEL-28 melanoma and in the test with HOP-62 NSCLC was greater than 100 µM throughout. The values for the TGI in the test on OVCAR-4 ovarian and in the test on COLO 205 colon were greater than 100 µM and 4.81 µM, respectively.

In the case of `O=C1CCCCN1CCCCC#Cc1cccc(C#Cc2cccnc2)c1`, the GI50 in the test with U251 CNS was 7.05 µM; in the test on MALME-3M melanoma it was 21.7 µM; with SK-OV-3 ovarian it was 16.4 µM; with EKVX NSCLC it was 23.5 µM; in the test with SF-539 CNS, 31.8 µM; with SK-MEL-28 melanoma, 38.7 µM. The GI50 in the test with HOP-62 NSCLC is 15.2 µM; with OVCAR-4 ovarian, 13.4 µM; in the test with COLO 205 colon, 6.88 µM. Moreover, the TGI with U251 CNS was 22 µM; with MALME-3M melanoma, 79.1 µM; with SK-OV-3 ovarian it was 32.2 µM; with EKVX NSCLC it was greater than 100 µM; in the test with SF-539 CNS, greater than 100 µM; with SK-MEL-28 melanoma it was greater than 100 µM. The TGI in the test with HOP-62 NSCLC was determined as 31.4 µM; with OVCAR-4 ovarian, 32.1 µM; in the test on COLO 205 colon, 21 µM.

Regarding `CCN(C(=O)/C=C/c1ccco1)c1ccccc1`, the TGI with U251 CNS, in the test with SK-OV-3 ovarian, with EKVX NSCLC, with RXF 393 renal, in the test on SK-MEL-28 melanoma and with HOP-62 NSCLC was greater than 100 µM throughout. Besides, the TGI in the test on OVCAR-4 ovarian and in the test with COLO 205 colon was greater than 100 µM throughout.

For `CC(=O)N1CCC2(c3ccccc3N(C(C)=O)C2c2ccc(O)cc2)C1C(=O)O` (centres undefined), the TGI in the test on U251 CNS, in the test on MALME-3M melanoma, in the test with SK-OV-3 ovarian, with EKVX NSCLC, in the test on SF-539 CNS and with RXF 393 renal was greater than 100 µM each time. Moreover, the TGI in the test with SK-MEL-28 melanoma, with HOP-62 NSCLC and with COLO 205 colon was greater than 100 µM throughout.

`O=[N+]([O-])c1ccc(-c2ccc(-c3csc(Nc4ccccc4)n3)o2)cc1`: the TGI was 41.5 µM in the test on U251 CNS; 32.1 µM with MALME-3M melanoma; greater than 100 µM in the test on SK-OV-3 ovarian; 33.5 µM in the test with EKVX NSCLC; 33.9 µM in the test on SF-539 CNS; 32.2 µM with SK-MEL-28 melanoma. The TGI with HOP-62 NSCLC is greater than 100 µM; in the test with OVCAR-4 ovarian, 32 µM; with COLO 205 colon, 58.2 µM.

As to `CC(=O)/C(=C/c1ccccc1F)C(=O)c1ccccc1`, the TGI in the test with U251 CNS was greater than 100 µM; in the test with SK-OV-3 ovarian it was greater than 100 µM; in the test with EKVX NSCLC, greater than 100 µM; in the test with SF-539 CNS, greater than 100 µM; with RXF 393 renal, 46 µM; in the test with SK-MEL-28 melanoma it was greater than 100 µM. The TGI with HOP-62 NSCLC, in the test on OVCAR-4 ovarian and in the test with COLO 205 colon was greater than 100 µM in each case.
